Source: patent US12649748B2, “Wee1 inhibitor and use thereof” (JIANGSU TASLY DIYI PHARMACEUTICAL CO., LTD., priority 2021, dated 2026)

Experiments:
[1] = Compound pharmacokinetics in mice; type: in vivo; details: male ICR mice, oral gavage 10 mg/kg, plasma; for Cmax / AUC(0-inf) / half-life: mouse; for AUC(0-inf): read-out: AUCinf—Pred; for half-life: read-out: T½ (converted)
Procedure: To investigate the pharmacokinetic properties of the compound in mice, six male ICR mice were given the compound by oral gavage (10 mg/kg) at the corresponding dose, and each route of administration was divided into two groups: group A mice had anticoagulated whole blood collected at 5 min, 30 min, 2 h and 8 h after administration, while group B mice had anticoagulated whole blood collected at 15 min, 1 h, 4 h and 24 h after administration, isolated plasma;
The plasma concentrations of the compounds were determined by LC-MS using a standard curve calibration method. Plasma concentration-time data were fitted to pharmacokinetic parameters using Winnolin 5.2 software.

CYP2B6 = biological target: T1, CYP2B6 (Homo sapiens, UniProt P20813); assay: Inhibition of cytochrome P450, 2B6; type: in vitro ADME; details: CYP2B6 enzyme, pH 7.4, compound concentration 10 μM, read-out: CYP inhibition/% 2B6
T1 sequence (P20813 1-491): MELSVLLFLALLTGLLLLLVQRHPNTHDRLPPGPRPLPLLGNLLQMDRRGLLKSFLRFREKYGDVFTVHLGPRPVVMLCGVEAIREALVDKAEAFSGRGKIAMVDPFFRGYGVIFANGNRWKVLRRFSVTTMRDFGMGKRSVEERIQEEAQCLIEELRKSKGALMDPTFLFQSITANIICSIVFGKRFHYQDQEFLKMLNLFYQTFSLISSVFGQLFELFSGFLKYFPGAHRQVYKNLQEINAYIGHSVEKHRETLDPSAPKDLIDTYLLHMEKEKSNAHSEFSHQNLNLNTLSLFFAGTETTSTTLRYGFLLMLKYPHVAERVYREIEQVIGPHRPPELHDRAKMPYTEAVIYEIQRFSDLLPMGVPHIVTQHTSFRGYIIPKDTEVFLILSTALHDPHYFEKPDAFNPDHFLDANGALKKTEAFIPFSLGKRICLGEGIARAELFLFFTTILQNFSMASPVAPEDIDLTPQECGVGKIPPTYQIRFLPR
Procedure: Enzymatic experiments were performed to quantify the inhibition of CYP450 enzyme activity of each isoform of CYP450 by small molecule inhibitors through fluorescence generated by the oxidation of the substrate by cytochrome P450. […] The Solution B composition used for the experiment was: 40 U/mL G6PDH (Sigma-aldrich, Cat #G6378). The substrate mix was 0.05× Solution A, 0.01× Solution B, 50 mM Potassium Phosphate, 0.01 mM BOMCC/0.01 mM EOMCC/0.001 mM DBOMF. […] The data were analyzed and processed using GraphPad Prism 6 software to obtain IC50 values.

hERG potassium channel = biological target: T2, hERG potassium channel (Homo sapiens, UniProt Q12809); assay: hERG potassium channel inhibition assay (patch clamp, CHO hERG cells); type: cell-based; details: CHO cells overexpressing hERG potassium channel, whole cell patch clamp
T2 construct: expressed in transfected cells; host or cells: CHO (Chinese hamster ovary) stably transfected cell line
T2 sequence (Q12809 whole entry): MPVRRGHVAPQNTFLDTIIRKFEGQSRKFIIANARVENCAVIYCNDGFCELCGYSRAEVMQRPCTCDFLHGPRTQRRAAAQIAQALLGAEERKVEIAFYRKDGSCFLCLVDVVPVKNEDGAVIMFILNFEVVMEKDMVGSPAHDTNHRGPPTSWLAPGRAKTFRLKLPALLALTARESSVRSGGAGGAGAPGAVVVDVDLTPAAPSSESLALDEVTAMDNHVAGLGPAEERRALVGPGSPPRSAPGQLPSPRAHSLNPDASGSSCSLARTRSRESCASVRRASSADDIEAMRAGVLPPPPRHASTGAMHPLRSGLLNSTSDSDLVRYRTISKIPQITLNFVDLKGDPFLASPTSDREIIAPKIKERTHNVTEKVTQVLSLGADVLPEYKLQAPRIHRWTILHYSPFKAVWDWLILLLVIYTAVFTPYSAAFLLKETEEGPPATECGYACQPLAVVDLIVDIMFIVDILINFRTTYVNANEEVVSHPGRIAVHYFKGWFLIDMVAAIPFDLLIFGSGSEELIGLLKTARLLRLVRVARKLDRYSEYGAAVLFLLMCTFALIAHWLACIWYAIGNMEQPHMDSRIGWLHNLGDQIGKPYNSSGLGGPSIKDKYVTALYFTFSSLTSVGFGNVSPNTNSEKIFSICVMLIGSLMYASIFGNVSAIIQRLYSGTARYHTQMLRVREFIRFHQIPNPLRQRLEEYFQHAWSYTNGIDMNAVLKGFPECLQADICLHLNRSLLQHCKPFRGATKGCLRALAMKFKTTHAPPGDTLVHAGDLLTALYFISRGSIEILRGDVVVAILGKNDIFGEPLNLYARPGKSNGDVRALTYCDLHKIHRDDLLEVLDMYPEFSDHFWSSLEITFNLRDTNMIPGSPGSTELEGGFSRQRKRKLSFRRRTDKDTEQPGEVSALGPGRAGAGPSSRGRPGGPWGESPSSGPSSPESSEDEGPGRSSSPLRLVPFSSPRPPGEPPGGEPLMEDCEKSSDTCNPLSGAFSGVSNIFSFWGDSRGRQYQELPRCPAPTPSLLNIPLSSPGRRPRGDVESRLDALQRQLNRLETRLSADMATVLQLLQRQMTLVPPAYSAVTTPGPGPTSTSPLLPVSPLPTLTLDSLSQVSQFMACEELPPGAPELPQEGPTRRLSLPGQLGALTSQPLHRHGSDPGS
Procedure: The cell line used for the patch clamp assay was a 10th generation CHO cell overexpressing hERG potassium channel cDNA.
CHO hERG cells were cultured in Petri dishes or flasks at 37° C. in a 5% CO2 incubator. Cells were dropped onto circular slides 24-48 hours prior to electrophysiological experiments and cultured in cell culture medium and used for experiments after the cells had been adhered.
Compound powders are dissolved in the extracellular solution and are subjected to a routine 5 to 10 minute sonication and shaking to ensure complete dissolution of the compound.
The final concentrations of compounds used for electrophysiological assays were 5, 20 μM and the final concentration of DMSO was 0.1%.
Cell membrane currents were recorded using a HEKA EPC-10 USB patch-clamp amplifier (HEKA Elektronik, Germany).
1) A coverslip with a large number of uniformly growing individual CHO hERG cells on its surface was taken. Place in a continuous recording cell on an inverted microscope, perfused with extracellular fluid (approximately 1 ml per minute) and recorded continuously, waiting for the current to stabilize. […]
3) The extracellular solution containing the drug to be tested was then perfused and recorded until the inhibitory effect of the drug on the hERG current reached a steady state, at which point the peak tail current was the post-drug current value. […]

| Structure (SMILES) | Cl_pred [1] | Cmax [1] | AUC(0-inf) [1] | half-life [1] | inhibition at 30 min, 10 µM (CYP2B6) | inhibition at 5 µM (hERG potassium channel; 5 μM) | inhibition at 20 µM (hERG potassium channel; 20 μM) |
| --- | --- | --- | --- | --- | --- | --- | --- |
| C=CCn1c(=O)c2cnc(Nc3ccc(N4CCN(C)CC4)cc3)nc2n1-c1cccc(C(C)(C)O)n1 [AZD-1775, reference compound] | 347 mL/min/kg | 445 ng/mL | 500 ng·h/mL | 0.77 h | – | – | – |
| CN1CCN(c2ccc(Nc3ncc4cnn(-c5cccc(N=S(C)(C)=O)n5)c4n3)cc2)CC1 [Compound 1] | 658 mL/min/kg | 169 ng/mL | 260 ng·h/mL | 1.71 h | 4.38% | 5.07% | 15.1% |
